Results as given in ChEMBL document CHEMBL1127832, “Furoxans as nitric oxide donors. 4-Phenyl-3-furoxancarbonitrile: thiol-mediated nitric oxide release and biological evaluation” (J Med Chem, 1994).

Key:
[1] = organism: Rattus norvegicus; assay: Compound was tested for its vasodilator effects on endothelium-denuded strips of rat aorta precontracted with noradrenaline; assay type: functional
[2] = organism: Rattus norvegicus; assay: Compound was tested for percent recovery of noradrenergic tone after washing aortic preparations with fresh Kreb's buffer; assay type: functional; conditions: Aorta

| SMILES | EC50 [1] [nM] | Recovery [2] [%] |
| --- | --- | --- |
| O=[N+]([O-])OCC(CO[N+](=O)[O-])O[N+](=O)[O-] [NITROGLYCERIN] | 22 | – |
| N#Cc1c(-c2ccccc2)no[n+]1[O-] [FUROXAN] | – | 66 |
